Results: article PMC10113214 (Scientific Reports, 2023)

Assays:
[1] = Circular dichroism, conformation and thermal stability of β-sheet; assay type: physicochemical; settings: for temperature of first disruption of the β-sheets / transition temperature (half β-conformation, half disordered): CD; for temperature of first disruption of the β-sheets: [θ]196 nm as function of temperature 4–100 °C, gel 10 mg/ml in water, 37 °C 4 h, diluted to 0.20 mg/ml, decrease of molar ellipticity; for transition temperature (half β-conformation, half disordered): [θ]196 nm vs temperature, 0.20 mg/ml in water, above 100 °C curve extrapolated, 4PL fit
Protocol: The molar ellipticity of peptides were registered on a Jasco J-815 spectrometer (JASCO, Easton, MD, USA). Solutions of peptide hybrids were prepared in water solution (10 mg/ml), incubated at 37 °C for 4 h and then diluted to a final concentration of 0.20 mg/ml. CD spectra measurements were performed at 25 °C, 30 °C, 35 °C, 40 °C, 45 °C, 50 °C, 55 °C and 60 °C, at 190–260 nm wavelength and at a scan speed of […]. The background of the solvent was subtracted. The results are presented as the relationship of mean residue molar ellipticity (MRME) [deg × cm^2 × dmol^−1] to wavelength [nm]. Measurements were performed in triplicate. In order to determine the peptides’ denaturation temperatures, the molar ellipticity rotatory angle at a fixed wavelength of 196 nm, [θ]196, was measured as a function of temperature (max 100 °C). CD temperature measurements were carried out up to a temperature of 100 °C. Above this temperature, the cure was extrapolated with GraphPad Prism 8 software using the 4PL curve fit function. The denaturation temperature was determined as the temperature at which the change in ellipticity (θ) was half complete.

[2] = target: T1, Human neutrophil elastase (Homo sapiens, UniProt P08246); assay: Elastase enzymatic cleavage; assay type: in vitro ADME; settings: human neutrophil elastase 150 nM, peptide 1 mM, 30 min, 37 °C; for identified fragments of peptides after elastase digestion (most abundant MS signals): 300 rpm, 0.1 M Tris HCl, 500 mM NaCl, 0.05% Triton X-100, 20 mM CaCl2 pH 7.5, HPLC and MALDI or LC-MS; for main / predominant fragments of elastase digestion: pH 7.5 buffer, HPLC, mass spectrometry
T1 construct: purchased Sigma-Aldrich
T1 sequence (P08246 30-267): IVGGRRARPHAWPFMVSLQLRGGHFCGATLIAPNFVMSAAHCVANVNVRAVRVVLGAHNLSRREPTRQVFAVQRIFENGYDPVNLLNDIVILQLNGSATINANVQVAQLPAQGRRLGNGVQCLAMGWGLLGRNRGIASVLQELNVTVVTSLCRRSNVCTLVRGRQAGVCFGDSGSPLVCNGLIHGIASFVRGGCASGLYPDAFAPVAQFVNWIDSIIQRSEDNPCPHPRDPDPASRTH
Protocol: Human neutrophil elastase (EC No. 3.4.21.37, Sigma-Aldrich) was used to study peptide susceptibility to that enzyme. Peptides were dissolved in 0.1 M Tris HCl, 500 mM NaCl, 0.05% Triton X-100, 20 mM CaCl2 pH 7.5 buffer mixture. Peptides (final concentration 1 mM) were mixed with the enzyme (final concentration 150 nM) and incubated for 30 min. in a thermoshaker (37 °C, 300 rpm). The reaction was stopped by a 10% aqueous solution of TFA. The results were analyzed using HPLC and MALDI or LC–MS. Details of this experiment are described in the Supplementary Data.

[3] = Rheology of hydrogels; assay type: physicochemical; settings: 1% hydrogel, 37 °C; for shear strain above which the gel behaves like a liquid (G” > G’): strain sweep, ω = 6.28 rad/s
Protocol: Rheological parameters of the hydrogels were identified using an MCR 302 rheometer (Anton Paar GmbH, Graz, Austria). The rheometer was equipped with a CP50-1 stainless steel cone-and-plate system of 50 mm diameter, 1° cone angle and 50 µm cone truncation and a Peltier controlled temperature unit. An aliquot of 900 µL of 1% hydrogel was applied to a plate cone. The linear viscoelastic (LVE) region was determined through an amplitude sweeps: shear strain (0.01–100% at 6 rad s^−1) and shear stress (0.001–10 Pa at 6.28 rad s^−1). Frequency sweep were measured from 0.01 to 100 rad s^−1 at 2.5% strain. The frequency dependence of the storage modulus (G’) and loss modulus (G”) of the hydrogels were measured at 37 °C. All experiments were carried out in triplicate and reported as the mean of three repeats.

[4] = Transmission electron microscopy of nanofibres; assay type: physicochemical; settings: 1% gel in PBS diluted to 0.001%, uranyl acetate stain
Protocol: 1% gel solutions were prepared and incubated in PBS. The samples were then diluted to 0.001% concentration. A drop of solution was applied to a microcellulose membrane and stained with a 1.5% solution of uranyl acetate. The images were registered on a Tecnai Spirit BioTwin FEI Transmission Electron Microscope operating at 120 kV.

[5] = tested on: dorsal skin wounds; assay: Histological evaluation of skin samples; assay type: in vivo, BALB/c mice; settings: Masson’s trichrome
Excerpt: Mice were sacrificed on day 18 post-injury. In addition, for investigation of early wound healing, 1 mouse from each group was sacrificed on day 4 post-injury. The skin samples were collected and stored in formalin. Skin samples embedded in paraffin were cut into 5 µm sections following staining with Masson’s trichrome (green: collagen, dermis; grey or dark grey: cell nuclei, epidermis, sebaceous glands; dark red: keratinized epidermis, muscle, hair; light red: red blood cells). Image acquisitions were made with a Leica DM IL microscope. To evaluate the collagen density in dorsal skin wounds, we employed the method of colour deconvolution described by Ruifrok and Johnston[52]. Using the ImageJ software with a colour deconvolution plug-in[53], we analyzed between 7 and 9 images of dorsal skin samples stained with Masson’ trichrome, representing 2–3 mice per group. The results are presented as mean relative collagen density.

[6] = tested on: full-thickness excisional dorsal skin wounds; assay: Skin wound healing model in mice; assay type: in vivo, BALB/c mice; settings: for wound closure on day 7: BALB/c female mice, 6.0 mm punch dorsal wounds, 10 µL 1% hydrogel topically daily for five days, n = 6, SD
Protocol: Eight to ten-week-old BALB/c female mice were used for these experiments. All experimental procedures were approved by the Local Ethics Committee for Animal Experimentation in Bydgoszcz, Poland (Approval No. 49/2016). The study was conducted in compliance with the ARRIVE gudidelines. All animal handling methods were carried out in accordance with European Union Commission Recommendation of 18 June 2007 on guidelines for the accommodation and care of animals used for experimental and other scientific purposes. Before experiments, mice were randomized and divided into groups comprising six individuals. The mice were anaesthetized with inhaled 2–5% isoflurane. The skin on the dorsum was shaved and disinfected. After the skin was folded and raised cranially and caudally along the spine, the mouse was placed in a lateral position, and the folded skin was pierced with a 6.0 mm biopsy punch to make two through-and-through symmetrical wounds. Next, 10 µL of peptide hybrid hydrogel was applied onto each wound. Every gel was prepared in sterile conditions in biological safety cabinet, using sterile water to final concentration of 10 mg/ml (1%). Then the gels were incubated for 24 h allowing it to assemble. Control mice were treated with RADA16-I. The wounds were covered with a transparent Tegaderm TM dressing to protect the wound from outer environment of the cage and other animals. It was fastened with an adhesive plaster wrapped around the animal’s torso. The peptide hybrids were applied daily to the wounds for five consecutive days. The dressings were replaced daily in the first five days of the experiment and every second day until the end of the second week of the experiment. To measure the wound areas the wounds were photographed with a ruler placed next to the injury site. Wound areas were calculated using the computer-assisted image analysis program ImageJ[51].

[7] = tested on: 46BR.1N fibroblasts; assay: LDH cytotoxicity assay, 46BR.1N; assay type: cell-based, human; settings: 150 µg/ml, 48 h, 3 independent experiments, n = 12
Protocol: Human HaCaT keratinocytes (DKFZ, Heidelberg, Germany)[47],[48], the human dermal fibroblast 46BR.1N cell line (ECACC, Sigma Aldrich Co.) and human primary dermal fibroblasts used in this study were routinely cultured in culture flasks (growth surface area: 25 cm^2) in DMEM-HG medium supplemented with 10% fetal bovine serum, 100 U/mL penicillin and […] streptomycin under standard conditions.
Briefly, the HaCaT and 46BR.1N cells were seeded in 96-well plates at a density of 5000 per well. Cell stimulation with RADA derivatives was performed using a protocol described before[49],[50]. Both assays were performed according to the manufacturers’ instructions (XTT- Roche, Cat. No. 11465015001; LDH- Takara, Cat. No. MK401).

[8] = fragment Ac-(RADA)4-GGG-AAPV-COOH

Row | temperature of first disruption of the β-sheets [1] [°C] | transition temperature (half β-conformation, half disordered) [1] [°C] | identified fragments of peptides after elastase digestion (most abundant MS signals) [2, 8] | magnitude of G’ compared with other gels ([3]; cone-plate, frequency sweep, mean of three repeats) | shear strain above which the gel behaves like a liquid (G” > G’) [3] | fibre thickness (TEM) [4] | heat stability of β-sheet structure (rank) ([1]; CD scans at different temperatures) | identified fragments of peptides after elastase digestion (most abundant MS signals) ([2]; fragment NH2 -GHK-NH2) | storage modulus G’ ([3]; cone-plate, frequency sweep 0.01–100 rad s−1 at 2.5% strain (Fig. 9 legend: 1%), mean of three repeats) [Pa] | SMILES | main / predominant fragments of elastase digestion [2] | collagen density on day 18 post-injury ([5]; colour deconvolution, 7–9 images, 2–3 mice per group) | hair follicles in wound area on day 18 ([5]; day 18 post-injury) | epithelium (membrane-like structure) thickness on day 4 post-injury ([5]; versus RADA16-I group, Mann–Whitney U test) | wound closure on day 7 [6] [%] | cytotoxicity (LDH), slight effect [7] | wound healing compared to RADA16-I ([6]; BALB/c mice, 1% hydrogel topically, day 2 up to day 14)
1 | ~52 | 95 | Ac-(RADA)4-GGG-AAPV-COOH | around one-tenth of these values | above 30% | 6–8 nm |  |  |  | CC(=O)N[C@@H](CCCNC(=N)N)C(=O)N[C@@H](C)C(=O)N[C@@H](CC(=O)O)C(=O)N[C@@H](C)C(=O)N[C@@H](CCCNC(=N)N)C(=O)N[C@@H](C)C(=O)N[C@@H](CC(=O)O)C(=O)N[C@@H](C)C(=O)N[C@@H](CCCNC(=N)N)C(=O)N[C@@H](C)C(=O)N[C@@H](CC(=O)O)C(=O)N[C@@H](C)C(=O)N[C@@H](CCCNC(=N)N)C(=O)N[C@@H](C)C(=O)N[C@@H](CC(=O)O)C(=O)N[C@@H](C)C(=O)NCC(=O)NCC(=O)NCC(=O)N[C@@H](C)C(=O)N[C@@H](C)C(=O)N1CCC[C@H]1C(=O)N[C@H](C(=O)NCC(=O)NCC(=O)NCC(=O)N[C@@H](CCCNC(=N)N)C(=O)N[C@@H](CC(=O)O)C(=O)N[C@@H](CCCCN)C(=O)N[C@H](C(=O)N[C@@H](Cc1ccc(O)cc1)C(=O)N[C@@H](CCCNC(=N)N)C(N)=O)C(C)C)C(C)C [RADA-IM, Ac-(Arg-Ala-Asp-Ala)4-Gly-Gly-Gly-Ala-Ala-Pro-Val-Gly-Gly-Gly-Arg-Asp-Lys-Val-Tyr-Arg-NH2] | Gly^24Gly^25Gly^26Arg^27Asp^28Lys^29Val^30Tyr^31Arg^32 | statistically significant lower collagen density than the RADA16-I sample | many hair follicles could be observed | significantly thicker epithelium | 16.2 ± 21.1 |  | 
2 | ~65 | 94 | Ac-(RADA)4-GGG-AAPV-COOH |  | above 30% | about 3 nm | highest | NH2 -GHK-NH2 | 550 | CC(=O)N[C@@H](CCCNC(=N)N)C(=O)N[C@@H](C)C(=O)N[C@@H](CC(=O)O)C(=O)N[C@@H](C)C(=O)N[C@@H](CCCNC(=N)N)C(=O)N[C@@H](C)C(=O)N[C@@H](CC(=O)O)C(=O)N[C@@H](C)C(=O)N[C@@H](CCCNC(=N)N)C(=O)N[C@@H](C)C(=O)N[C@@H](CC(=O)O)C(=O)N[C@@H](C)C(=O)N[C@@H](CCCNC(=N)N)C(=O)N[C@@H](C)C(=O)N[C@@H](CC(=O)O)C(=O)N[C@@H](C)C(=O)NCC(=O)NCC(=O)NCC(=O)N[C@@H](C)C(=O)N[C@@H](C)C(=O)N1CCC[C@H]1C(=O)N[C@H](C(=O)NCC(=O)NCC(=O)NCC(=O)N[C@@H](Cc1c[nH]cn1)C(=O)N[C@@H](CCCCN)C(N)=O)C(C)C [RADA-GHK, Ac-(Arg-Ala-Asp-Ala)4-Gly-Gly-Gly-Ala-Ala-Pro-Val-Gly-Gly-Gly-His-Lys-NH2] | Gly^26His^27Lys^28 |  |  |  | 41.8 ± 16.1 | ca. 15% | Accelerated wound healing
